14 molecules from US12662478B2, “ATF6 modulators and uses thereof” (Altos Labs, Inc., priority 2019, dated 2026) can be followed below.

The test has as its target T1, ATF6 (Homo sapiens, UniProt P18850).
T1 construct: endogenous in cells; host or cells: U2-OS (ATCC HTB-96) stably transduced with the Cignal Lenti ATF6 luc reporter (Qiagen #CLS-6031L)
T1 sequence (P18850 1-670): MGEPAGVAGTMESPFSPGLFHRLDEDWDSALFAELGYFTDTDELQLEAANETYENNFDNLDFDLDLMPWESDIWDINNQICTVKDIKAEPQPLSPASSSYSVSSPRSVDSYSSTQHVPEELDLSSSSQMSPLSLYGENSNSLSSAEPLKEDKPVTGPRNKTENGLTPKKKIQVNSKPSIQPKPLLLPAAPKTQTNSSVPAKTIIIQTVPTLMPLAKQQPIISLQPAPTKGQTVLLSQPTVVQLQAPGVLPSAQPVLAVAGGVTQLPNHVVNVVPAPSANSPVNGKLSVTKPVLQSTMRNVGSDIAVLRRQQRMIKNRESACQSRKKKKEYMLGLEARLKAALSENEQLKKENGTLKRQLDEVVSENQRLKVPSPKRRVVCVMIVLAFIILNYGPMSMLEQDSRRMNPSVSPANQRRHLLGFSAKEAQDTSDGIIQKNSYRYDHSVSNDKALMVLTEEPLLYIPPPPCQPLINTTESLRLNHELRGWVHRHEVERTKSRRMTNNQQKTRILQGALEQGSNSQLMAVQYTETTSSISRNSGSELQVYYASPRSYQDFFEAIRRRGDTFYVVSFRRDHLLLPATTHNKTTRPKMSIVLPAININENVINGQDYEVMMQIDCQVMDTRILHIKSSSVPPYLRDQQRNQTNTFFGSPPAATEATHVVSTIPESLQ
In words: ERSE ATF6-luciferase assay in presence of Tg-induced ER stress (U2-OS ATF6 TRE-luciferase reporter cells). The test is classed as cell-based. As to conditions: in presence of ER stress (thapsigargin), Tg only = 100%; for activity at 1 µM / activity at 10 µM: U2OS, 8 h; for activity at 1 µM / ATF6 activity @ 1 μM [%]: 1 μM test compound; for activity at 10 µM / ATF6 activity @ 10 μM [%]: 10 μM test compound; for ATF6 activity @ 10 μM [%] / ATF6 activity @ 1 μM [%]: 8 hr. The protocol: To understand how exemplary compounds of the invention modulate the activity of ATF6 in absence or presence of endoplasmic reticulum (ER) stress, a Human bone osteosarcoma (U2-OS)-based TRE-luciferase reporter stable cell line was generated to determine the modulation of transcription of ATF6 target genes.
U2-OS cells were obtained from the American Type Culture Collection (ATCC HTB-96, ATCC Manassas, VA) and were cultured with growing medium containing Dulbecco's Modified Eagle's Medium (DMEM) (Cat. No.: SH30023.02, HyClone) supplemented with fetal bovine serum (FBS) 10% (Cat. No.: 16000044, Gibco) and 1% penicillin-streptomycin antibiotic cocktail (Cat. No.: SV30010, Hyclone).
Cignal Lenti ATF6 luc reporter (Qiagen #CLS-6031L) was used to produce a stable cell line in U2-OS cells (U2-OS ATF6 TRE-luciferase reporter). The lenti ATF6 reporter is a preparation of replication incompetent, VSV-g pseudotyped lentivirus particles expressing the firefly luciferase gene under the control of a minimal (m)CMV promoter and tandem repeats of the ATF6 transcriptional response element (TRE). The number of response elements as well as the intervening sequence between response elements has been experimentally optimized to maximize the signal to noise ratio.
Exemplary compounds of the invention and reference compounds were prepared from powder as 10 mM stock solutions in dimethyl sulfoxide (DMSO; Cat. No. #D2650, Sigma Aldrich) and stored at −80° C. in presence of N2 neutral atmosphere.
For the primary screening, 40,000 U2-OS ATF6 TRE-luciferase reporter cells were plated in poly-D-lysine (Cat. No.: P2636, Sigma) pre-coated white 96-well plates (Thermo Scientific Nunc #136101) with 100 μL of growing medium. Cells were incubated in humidified chambers for 24 hr.
For testing exemplary compounds in presence of ER-stress, cells were pre-treated for 30 min with 50 μL growing medium containing either vehicle (DMSO), 1 or 10 μM test compound. After this pre-incubation, 50 μL of a solution containing 0.2 μM of the ER stress-inducer thapsigargin (Tg) was added to the appropriate wells. The Tg solution also contains vehicle or test compounds at 1 or 10 μM as indicated. The final concentration of DMSO in each well was kept at 0.3%. Plates were incubated for 8 hr in humidified chambers.
After the 8 hr incubation, plates were cooled down to room temperature for 10 min prior to the luciferase assays. Luciferase reactions were performed using Luciferase Assay System (Cat. No.: E4550, Promega). Briefly, each well was washed with 100 μl of PBS 1× and, then, 20 μl of lysis reagent was added into each well. Plates were shaken for 10 min and, then, 50 μl of Luciferase Assay Reagent was added to each well. Luminescence was determined by integration of 1 s with a gain of 110 in a Synergy 4 Microplate reader. All measurements were carried out in triplicate.
The average activity determined from the wells containing vehicle only (DMSO, 0% of ATF6 activity) was used as blank and subtracted from the rest of measurements. The average activity determined from the wells containing Tg only was used as 100% of ATF6 activity. The percentage of modulation of exemplary compounds was calculated by normalizing values to potential maximal activation with Tg.
ATF6 activities of exemplary compounds at 1 and 10 μM in presence Tg-induced ER stress tested in the U2-OS ATF6 TRE-luciferase reporter cells were determined and are shown in Table 2-2 and Table 3-2.
(In general: Reporter assays use an easily measured gene product as a stand-in for the process of interest.)

In the case of `Cc1nn(C(C)c2ccc(C(F)(F)F)cc2C(F)(F)F)cc1C#Cc1nnc(-c2ccccn2)s1` (stereo not drawn) [Compound 2-11, 2-((1-(1-(2,4-bis(trifluoromethyl)phenyl)ethyl)-3-methyl-1H-pyrazol-4-yl)ethynyl)-5-(pyridin-2-yl)-1,3,4-thiadiazole], under “Table 2-2”, the activity at 1 µM was in the range of 50 to 75% and the activity at 10 µM is 50 to 75%.

Consider `CC(c1ccc(C(F)(F)F)cc1C(F)(F)F)n1cc(/C=C/c2nnc(-c3ccccn3)s2)cn1` (stereo not drawn) [Compound 2-5, (E)-2-(2-(1-(1-(2,4-bis(trifluoromethyl)phenyl)ethyl)-1H-pyrazol-4-yl)vinyl)-5-(pyridin-2-yl)-1,3,4-thiadiazole], for which, under “Table 2-2”, the activity at 1 µM is 100 to 125% and the activity at 10 µM is less than 50%.

As to `CC(c1ccc(C(F)(F)F)cc1C(F)(F)F)n1cc(/C=C\c2nnc(-c3ccccn3)s2)cn1` (stereo not drawn) [Compound 2-6, (Z)-2-(2-(1-(1-(2,4-bis(trifluoromethyl)phenyl)ethyl)-1H-pyrazol-4-yl)vinyl)-5-(pyridin-2-yl)-1,3,4-thiadiazole], under “Table 2-2”, the “ATF6 activity @ 10 μM [%]” value is “−− (−− refers to 50% < % activity < 75% at 1 or 10 μM test compound)” and the activity at 1 µM was 100 to 125%.

Regarding `Cc1nn(C(C)c2ccc(C(F)(F)F)cc2C(F)(F)F)cc1C#Cc1nnc(-c2ccccn2)s1` (single isomer, unassigned) [Compound 2-24, 2-((1-(1-(2,4-bis(trifluoromethyl)phenyl)ethyl)-3-methyl-1H-pyrazol-4-yl)ethynyl)-5-(pyridin-2-yl)-1,3,4-thiadiazole], for the setting “Table 2-2”, the “ATF6 activity @ 1 μM [%]” value was “−−− (−−− refers to <50% at 1 or 10 μM test compound)” and the “ATF6 activity @ 10 μM [%]” value is recorded as “−−− (−−− refers to <50% at 1 or 10 μM test compound)”.

For the molecule `CC(c1ccc(C(F)(F)F)cc1C(F)(F)F)n1cc(CCc2nnc(-c3ccccn3)s2)cn1` (stereo not drawn) [Compound 2-9, 2-(2-(1-(1-(2,4-bis(trifluoromethyl)phenyl)ethyl)-1H-pyrazol-4-yl)ethyl)-5-(pyridin-2-yl)-1,3,4-thiadiazole], under “Table 2-2”, the activity at 1 µM was in the range of 75 to 100% and the activity at 10 µM is less than 50%.

Turning to `CC(c1ccc(C(F)(F)F)cc1C(F)(F)F)n1cc(C#Cc2nnc(-c3cnccn3)s2)cn1` (single isomer, unassigned) [Compound 2-21, 2-((1-(1-(2,4-bis(trifluoromethyl)phenyl)ethyl)-1H-pyrazol-4-yl)ethynyl)-5-(pyrazin-2-yl)-1,3,4-thiadiazole], under “Table 2-2”, the “ATF6 activity @ 1 μM [%]” value was “− (− refers to 75% < % activity < 100% at 1 or 10 μM)” and the activity at 10 µM lay within 75 to 100%.

For the molecule `CC(c1ccc(C(F)(F)F)cc1C(F)(F)F)n1cc(/C=C\c2nnc(-c3ccccn3)s2)cn1` (stereo not drawn) [Compound 2-7, (Z)-2-(2-(1-(1-(2,4-bis(trifluoromethyl)phenyl)ethyl)-1H-pyrazol-4-yl)vinyl)-5-(pyridin-2-yl)-1,3,4-thiadiazole], where the note is “Table 2-2”, the “ATF6 activity @ 1 μM [%]” value is listed as “+ (+ refers to 100% < % activity < 125% at 1 or 10 μM)” and the “ATF6 activity @ 10 μM [%]” value is “− (− refers to 75% < % activity < 100% at 1 or 10 μM)”.

For `CC(c1ccc(C(F)(F)F)cc1C(F)(F)F)n1cc(/C=C\c2nnc(-c3ccccn3)s2)cn1` (stereo not drawn) [Compound 2-8, (Z)-2-(2-(1-(1-(2,4-bis(trifluoromethyl)phenyl)ethyl)-1H-pyrazol-4-yl)vinyl)-5-(pyridin-2-yl)-1,3,4-thiadiazole], under “Table 2-2”, the “ATF6 activity @ 1 μM [%]” value was “+ (+ refers to 100% < % activity < 125% at 1 or 10 μM)” and the “ATF6 activity @ 10 μM [%]” value is recorded as “−− (−− refers to 50% < % activity < 75% at 1 or 10 μM test compound)”.

On to `CC(c1ccc(C(F)(F)F)cc1C(F)(F)F)n1cc(C#Cc2nnc(-c3cnccn3)s2)cn1` (single isomer, unassigned) [Compound 2-22, 2-((1-(1-(2,4-bis(trifluoromethyl)phenyl)ethyl)-1H-pyrazol-4-yl)ethynyl)-5-(pyrazin-2-yl)-1,3,4-thiadiazole], for which, under “Table 2-2”, the “ATF6 activity @ 1 μM [%]” value is on record as “−− (−− refers to 50% < % activity < 75% at 1 or 10 μM test compound)” and the “ATF6 activity @ 10 μM [%]” value is “− (− refers to 75% < % activity < 100% at 1 or 10 μM)”.

Consider `FC(F)(F)c1ccc(Cn2cc(C#Cc3nnc(-c4ccccn4)s3)cn2)c(C(F)(F)F)c1` [Compound 2-4, 2-((1-(2,4-bis(trifluoromethyl)benzyl)-1H-pyrazol-4-yl)ethynyl)-5-(pyridin-2-yl)-1,3,4-thiadiazole], for which, for the setting “Table 2-2”, the activity at 1 µM fell in the range of 50 to 75% and the activity at 10 µM lay in the range of 75 to 100%.

For the molecule `CC(c1ccc(C(F)(F)F)cc1C(F)(F)F)n1cc(C#Cc2nnc(-c3cnccn3)s2)cn1` (stereo not drawn) [Compound 2-10, 2-((1-(1-(2,4-bis(trifluoromethyl)phenyl)ethyl)-1H-pyrazol-4-yl)ethynyl)-5-(pyrazin-2-yl)-1,3,4-thiadiazole], under “Table 2-2”, the activity at 1 µM lay within 50 to 75% and the activity at 10 µM is 75 to 100%.

In the case of `Cc1nn(C(C)c2ccc(C(F)(F)F)cc2C(F)(F)F)cc1C#Cc1nnc(-c2ccccn2)s1` (single isomer, unassigned) [Compound 2-23, 2-((1-(1-(2,4-bis(trifluoromethyl)phenyl)ethyl)-3-methyl-1H-pyrazol-4-yl)ethynyl)-5-(pyridin-2-yl)-1,3,4-thiadiazole], under “Table 2-2”, the “ATF6 activity @ 1 μM [%]” value is on record as “− (− refers to 75% < % activity < 100% at 1 or 10 μM)” and the activity at 10 µM was in the range of 50 to 75%.

Consider `CC(c1ccc(C(F)(F)F)cc1C(F)(F)F)n1cc(C#Cc2nnc(-c3ccccn3)s2)cn1` (stereo not drawn) [Compound 2-2, 2-((1-(1-(2,4-bis(trifluoromethyl)phenyl)ethyl)-1H-pyrazol-4-yl)ethynyl)-5-(pyridin-2-yl)-1,3,4-thiadiazole], for which, for the setting “Table 2-2”, the activity at 1 µM is less than 50% and the activity at 10 µM is less than 50%.

Regarding `O=C(Nc1cnn(Cc2ccc(C(F)(F)F)cc2C(F)(F)F)c1)c1cc(-c2ccco2)on1` [Ceapin-A7, reference compound], where the note is “Table 2-2”, the “ATF6 activity @ 1 μM [%]” value is “−−− (−−− refers to <50% at 1 or 10 μM test compound)” and the “ATF6 activity @ 10 μM [%]” value is on record as “−−− (−−− refers to <50% at 1 or 10 μM test compound)”. Also, for the setting “Table 2-3”, the “ATF6 activity @ 1 μM [%]” value is “−−− (−−− refers to <50% at 1 or 10 μM test compound)” and the “ATF6 activity @ 10 μM [%]” value is reported as “−−− (−−− refers to <50% at 1 or 10 μM test compound)”.
